Values of other authors as cited in patent US5006329A, “Radioactive tagged compounds and method for the treatment of metastatic bone cancer” (priority 1989, dated 1991).

Assays:
malignant bone tissue = details: tumor vs normal bone
bone cancer = details: HMDP with Samarium-153 label
[1] = for high energy beta emissions: e.g.
bone marrow = details: after treatment of a patient; reported
metastatic bone cancer = details: over 100 patients

## O=P([O-])([O-])CP(=O)(O)O.[Na+].[Na+] [MDP, disodium methylene-diphosphonate]
Malignant bone tissue
  accretion rate of tumor compared with normal bone: substantially higher than normal bone

## [153Sm] [Samarium-153]
Bone cancer
  safety with respect to healthy bone marrow tissue: indeterminate
Bone cancer; preliminary results
  effectiveness in treating the malignancy: promising
[1]
  half-life (radioactive): two
  high energy beta emissions: 600-700 KeV
Bone marrow
  blood profile changes: blood profile changes occur

## Strontium-89
Metastatic bone cancer
  degree of malignancy: reduced
  dose of radioactivity to bone marrow: unacceptably high
  pain: reduced
Metastatic bone cancer; Dr. Ralph Robinson
  effectiveness in treating the cancer: acceptable
[1]
  high energy beta emissions: 800 KeV
Bone marrow
  blood profile changes: blood profile changes occur
